# In patent publication US8569311B2, “Pyridyl piperidine orexin receptor antagonists” (Merch Sharp & Dohme Corp., priority 2007, dated 2013):
# Assays:
# OX1R = OX1R (Rattus norvegicus, UniProt P56718); assay: radioligand binding assay, OX1 receptor; details: membranes prepared from CHO cells expressing the OX1 receptor
# Method: (§1) The utility of the compounds in accordance with the present invention as orexin receptor OX1R and/or OX2R antagonists may be readily determined without undue experimentation by methodology well known in the art, including the “FLIPR Ca^2+ Flux Assay” (Okumura et al., Biochem. Biophys. Res. Comm 280:976-981, 2001). In a typical experiment the OX1 and OX2 receptor antagonistic activity of the compounds of the present invention was determined in accordance with the following experimental method. For intracellular calcium measurements, Chinese hamster ovary (CHO) cells expressing the rat orexin-1 receptor or the human orexin-2 receptor, are grown in Iscove's modified DMEM containing 2 mM L-glutamine, […], 1% hypoxanthine-thymidine supplement, 100 U/ml penicillin, 100 ug/ml streptomycin and 10% heat-inactivated fetal calf serum (FCS). The cells are seeded at 20,000 cells/well into Becton-Dickinson black 384-well clear bottom sterile plates coated with poly-D-lysine. All reagents were from GIBCO-Invitrogen Corp. The seeded plates are incubated overnight at 37° C. and 5% CO2. Ala-6,12 human orexin-A as the agonist is prepared as a 1 mM stock solution in 1% bovine serum albumin (BSA) and diluted in assay buffer (HBSS containing 20 mM HEPES, 0.1% BSA and 2.5 mM probenecid, pH7.4) for use in the assay at a final concentration of 70 pM. Test compounds are prepared as 10 mM stock solution in DMSO, then diluted in 384-well plates, first in DMSO, then assay buffer. On the day of the assay, cells are washed 3 times with 100 ul assay buffer and then incubated for 60 min (37° C., 5% CO2) in 60 ul assay buffer containing 1 uM Fluo-4AM ester, 0.02% pluronic acid, and 1% BSA. The dye loading solution is then aspirated and cells are washed 3 times with 100 ul assay buffer. 30 ul of that same buffer is left in each well. Within the Fluorescent Imaging Plate Reader (FLIPR, Molecular Devices), test compounds are added to the plate in a volume of 25 ul, incubated for 5 min and finally 25 ul of agonist is added. Fluorescence is measured for each well at 1 second intervals for 5 minutes and the height of each fluorescence peak is compared to the height of the fluorescence peak induced by 70 pM Ala-6,12 orexin-A with buffer in place of antagonist. For each antagonist, IC50 value (the concentration of compound needed to inhibit 50% of the agonist response) is determined. Alternatively, compound potency can be assessed by a radioligand binding assay (described in Bergman et. al. Bioorg. Med. Chem. Lett. 2008, 18, 1425-1430) in which the inhibition constant (Ki) is determined in membranes prepared from CHO cells expressing either the OX1 or OX2 receptor. The intrinsic orexin receptor antagonist activity of a compound which may be used in the present invention may be determined by these assays.
# OX2R = OX2R (Homo sapiens (Human), UniProt O43614); assay: radioligand binding assay, OX2 receptor; details: membranes prepared from CHO cells expressing the OX2 receptor
# OX2R, sequence (O43614 whole entry): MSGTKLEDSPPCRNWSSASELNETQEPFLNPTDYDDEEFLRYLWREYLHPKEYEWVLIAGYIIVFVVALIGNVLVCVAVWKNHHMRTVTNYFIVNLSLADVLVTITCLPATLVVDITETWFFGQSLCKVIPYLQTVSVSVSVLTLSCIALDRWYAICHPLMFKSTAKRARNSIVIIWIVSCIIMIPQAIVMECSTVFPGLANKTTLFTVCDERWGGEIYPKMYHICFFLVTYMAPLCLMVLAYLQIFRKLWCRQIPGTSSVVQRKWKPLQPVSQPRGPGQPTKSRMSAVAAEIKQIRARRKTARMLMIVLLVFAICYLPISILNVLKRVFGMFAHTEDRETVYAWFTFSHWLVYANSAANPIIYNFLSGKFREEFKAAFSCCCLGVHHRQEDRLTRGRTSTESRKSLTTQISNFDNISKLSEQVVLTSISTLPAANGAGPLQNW
# Method: as §1
# OX1R, sequence (P56718 whole entry, looked up): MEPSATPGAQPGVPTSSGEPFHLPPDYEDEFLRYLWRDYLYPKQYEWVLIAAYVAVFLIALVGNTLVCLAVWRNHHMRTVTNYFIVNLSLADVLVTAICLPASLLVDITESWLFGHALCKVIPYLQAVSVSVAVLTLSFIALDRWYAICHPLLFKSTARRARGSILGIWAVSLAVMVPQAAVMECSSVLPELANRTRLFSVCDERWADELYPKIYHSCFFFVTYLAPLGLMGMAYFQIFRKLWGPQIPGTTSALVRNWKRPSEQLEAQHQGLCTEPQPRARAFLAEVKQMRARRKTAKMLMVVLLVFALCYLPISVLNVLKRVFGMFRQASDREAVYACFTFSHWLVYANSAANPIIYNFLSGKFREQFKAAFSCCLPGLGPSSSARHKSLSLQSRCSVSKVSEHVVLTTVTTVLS
SMILES,Ki (OX1R) [nM],Ki (OX2R) [nM]
"C[C@@H]1CC[C@@H](COc2ccc(F)cn2)CN1C(=O)c1ccccc1-n1nccn1 [Compound 1-4, 5-fluoro-2-({(3R,6R)-6-methyl-1-[2-(2H-1,2,3-triazol-2-yl)benzoyl]piperidin-3-yl}methoxy)pyridine]",12,0.37
"C[C@@H]1CC[C@@H](COc2ccnc(Cl)c2)CN1C(=O)c1ccccc1-n1nccn1 [Compound 1-43, 2-chloro-4-({(3R,6R)-6-methyl-1-[2-(2H-1,2,3-triazol-2-yl)benzoyl]piperidin-3-yl}methoxy)pyridine]",140,22
"C[C@@H]1CC[C@@H](COc2ccc(Br)nc2)CN1C(=O)c1ccccc1-n1nccn1 [Compound 1-42, 2-bromo-5-({(3R,6R)-6-mcthyl-1-[2-(2H-1,2,3-triazol-2-yl)benzoyl]piperidin-3-yl}methoxy)pyridine]",64,3.8
"Cc1ccc(-c2ccccn2)c(C(=O)N2C[C@H](COc3ccc(F)cn3)CC[C@H]2C)c1 [Compound 1-15, 5-fluoro-2-{[(3R,6R)-6-methyl-1-(5-methyl-2-pyridin-2-ylbenzoyl)piperidin-3-yl}methoxy}pyridine]",3.2,0.35
"C[C@@H]1CC[C@@H](COc2ccc(F)cn2)CN1C(=O)c1c(F)cccc1-c1ncccn1 [Compound 1-34, 2-{3-fluoro-2-[((2R,5R)-5-{[(5-fluoropyridin-2-yl)oxy]methyl}-2-methylpiperidin-1-yl)carbonyl]phenyl}pyrimidine]",8.2,0.68
"C[C@@H]1CC[C@@H](COc2ccc(F)cn2)CN1C(=O)c1cc(F)ccc1-c1ncccn1 [Compound 1-19, 2-{4-fluoro-2-[((2R,5R)-5-{[(5-fluoropyridin-2-yl)oxy]methyl}-2-methylpiperidin-1-yl)carbonyl]phenyl}pyrimidine]",10,0.53
"Cc1ccc(-c2ccccc2)c(C(=O)N2C[C@H](COc3ccc(F)cn3)CC[C@H]2C)c1 [Compound 1-10, 5-fluoro-2-({(3R,6R)-6-methyl-1-[(4-methylbiphenyl-2-yl)carbonyl]piperidin-3-yl}methoxy)pyridine]",0.71,0.08
"C[C@@H]1CC[C@@H](COc2ccc(F)cn2)CN1C(=O)c1cc(F)ccc1-n1nccn1 [Compound 1-8, 5-fluoro-2-({(3R,6R)-1-[5-fluoro-2-(2H-1,2,3-triazol-2-yl)benzoyl]-6-methylpiperidin-3-yl}methoxy)pyridine]",6.8,0.5
"C[C@@H]1CC[C@@H](COc2ccc(F)cn2)CN1C(=O)c1ncccc1-c1ccccc1 [Compound 1-38, 2-[((2R,5R)-5-{[(5-fluoropyridin-2-yl)oxy]methyl}-2-methylpiperidin-1-yl)carbonyl]-3-phenylpyridine]",86,1.9
"C[C@@H]1CC[C@@H](COc2ccc(F)cn2)CN1C(=O)c1ccccc1-n1cccn1 [Compound 1-37, 5-fluoro-2-({(3R,6R)-6-methyl-1-[2-(1H-pyrazol-1-yl)benzoyl]piperidin-3-yl}methoxy)pyridine]",55,1.5
"Cc1ccc(-c2cn[nH]c2)c(C(=O)N2C[C@H](COc3ccc(F)cn3)CC[C@H]2C)c1 [Compound 1-21, 5-fluoro-2-({(3R,6R)-6-methyl-1-[5-methyl-2-(1H-pyrazol-4-yl)benzoyl]piperidin-3-yl}methoxy)pyridine]",7.1,0.48
"C[C@@H]1CC[C@@H](COc2ccc(F)cn2)CN1C(=O)c1ccccc1-c1ncccn1 [Compound 1-28, 2-{2-[((2R,5R)-5-{[(5-fluoropyridin-2-yl)oxy]methyl}-2-methylpiperidin-1-yl)carbonyl]phenyl}pyrimidine]",17,0.67
"CCOc1ccccc1C(=O)N1C[C@H](COc2ccc(F)cn2)CC[C@H]1C [Compound 1-24, 2-{[(3R,6R)-1-(2-ethoxybenzoyl)-6-methylpiperidin-3-yl]methoxy}-5-fluoropyridine]",36,1.7
"C[C@@H]1CC[C@@H](COc2ccc(F)cn2)CN1C(=O)c1cccc2cc[nH]c12 [Compound 1-27, 7-[((2R,5R)-5-{[(5-fluoropyridin-2-yl)oxy]methyl}-2-methylpiperidin-1-yl)carbonyl]-1H-indole]",75,10
"Cc1ccc(-c2nccs2)c(C(=O)N2C[C@H](COc3ccc(F)cn3)CC[C@H]2C)c1 [Compound 1-1, 5-fluoro-2-({(3R,6R)-6-methyl-1-[5-methyl-2-(1,3-thiazol-2-yl)benzoyl]piperidin 3-yl}methoxy)pyridine]",1.8,0.24

# The remaining lines, values ahead:
Ki (OX1R) [nM],Ki (OX2R) [nM],SMILES
260,410,"C[C@@H]1CC[C@@H](COc2ccc(F)cn2)CN1C(=O)c1cc(C(=O)O)ccc1-n1nccn1 [Compound F-4, 3-[((2R,5R)-5-{[(5-Fluoropyridin-2-yl)oxy]methyl}-2-methylpiperidin-1-yl)carbonyl]-4-(2H-1,2,3-triazol-2-yl)benzoic acid]"
14,1.7,"C[C@@H]1CC[C@@H](COc2ccc(F)cn2)CN1C(=O)c1cc(CO)ccc1-n1nccn1 [Compound G-1, [3-[((2R,5R)-5-{[(5-Fluoropyridin-2-yl)oxy]methyl}-2-methylpiperidin-1-yl)carbonyl]-4-(2H-1,2,3-triazol-2-yl)phenyl]methanol]"
1,0.24,"Cc1ccc(-n2nccn2)c(C(=O)N2C[C@H](COc3ccc(F)cn3)CC[C@H]2C)c1 [Compound A-9, 5-Fluoro-2-({(3R,6R)-6-methyl-1-[5-methyl-2-(2H-1,2,3-triazol-2-yl)benzoyl]piperidin-3-yl}methoxy)pyridine]"
22,0.67,"Cc1cccc(OC[C@@H]2CC[C@@H](C)N(C(=O)c3ccccc3-n3nccn3)C2)n1 [Compound C-4, 2-Methyl-6-({(3R,6R)-6-methyl-1-[2-(2H-1,2,3-triazol-2-yl)benzoyl]piperidin-3-yl}methoxy)pyridine]"
30,2,"C[C@@H]1CC[C@@H](COc2ccc(F)cn2)CN1C(=O)c1cc(CO)ccc1-c1ncccn1 [Compound I-7, {3-[((2R,5R)-5-{[(5-Fluoropyridin-2-yl)oxy]methyl}-2-methylpiperidin-1-yl)carbonyl]-4-pyrimidin-2-ylphenyl}methanol]"
2.9,0.31,"Cc1ccc(-c2ncccn2)c(C(=O)N2C[C@H](COc3ccc(F)cn3)CC[C@H]2C)c1 [Compound E-5, 2-{2-[((2R,5R)-5-{[(5-Fluoropyridin-2-yl)oxy]methyl}-2-methylpiperidin-1-yl)carbonyl]-4-methylphenyl}pyrimidine]"
96,29,Cc1ccc(-n2nccn2)c(C(=O)N2CCCC(COc3ccc(F)nc3)C2)c1 (stereo not drawn) [Compound 2-1]
3.3,0.54,"Cc1ccc(-c2cnccn2)c(C(=O)N2C[C@H](COc3ccc(F)cn3)CC[C@H]2C)c1 [Compound B-3, 2-{2-[((2R,5R)-5-{[(5-Fluoropyridin-2-yl)oxy]methyl}-2-methylpiperidin-1-yl)carbonyl]-4-methylphenyl}pyrazine]"
84,37,"C[C@@H]1CC[C@@H](COc2ccc(F)cn2)CN1C(=O)c1cc(C(=O)O)ccc1-c1ncccn1 [Compound H-4, 3-[((2R,5R)-5-{[(5-fluoropyridin-2-yl)oxy]methyl}-2-methylpiperidin-1-yl)carbonyl]-4-pyrimidin-2-ylbenzoic acid]"
